pEC50, pIC50: −log10 of the molar value.
What was measured:
[1] = molecular target: PI3 K Alpha (Homo sapiens, UniProt P42336); test: PI3 kinase phosphorylation assays (homogenous solution phase, one step solid phase, ATP depletion/KinaseGlo); type: biochemical; conditions: read-out: PI3K Alpha IC50
[2] = test system: A2780 cells; test: Viability assay in A2780 (Cell Titer Glo); type: cell-based, human; conditions: Homo sapiens; A2780 cells; read-out: A2780 Cell prolif. EC50
Outline: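 A2780 cells (1,000/well, DMEM + 10% FBS) were exposed to 3-fold serial dilutions of compound for 72 hrs at 37° C, 5% CO2. Viable cells were read by Cell Titer Glo luminescence, in duplicate, and EC50 values were derived from the curves.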

Chain of PI3 K Alpha (P42336 whole entry): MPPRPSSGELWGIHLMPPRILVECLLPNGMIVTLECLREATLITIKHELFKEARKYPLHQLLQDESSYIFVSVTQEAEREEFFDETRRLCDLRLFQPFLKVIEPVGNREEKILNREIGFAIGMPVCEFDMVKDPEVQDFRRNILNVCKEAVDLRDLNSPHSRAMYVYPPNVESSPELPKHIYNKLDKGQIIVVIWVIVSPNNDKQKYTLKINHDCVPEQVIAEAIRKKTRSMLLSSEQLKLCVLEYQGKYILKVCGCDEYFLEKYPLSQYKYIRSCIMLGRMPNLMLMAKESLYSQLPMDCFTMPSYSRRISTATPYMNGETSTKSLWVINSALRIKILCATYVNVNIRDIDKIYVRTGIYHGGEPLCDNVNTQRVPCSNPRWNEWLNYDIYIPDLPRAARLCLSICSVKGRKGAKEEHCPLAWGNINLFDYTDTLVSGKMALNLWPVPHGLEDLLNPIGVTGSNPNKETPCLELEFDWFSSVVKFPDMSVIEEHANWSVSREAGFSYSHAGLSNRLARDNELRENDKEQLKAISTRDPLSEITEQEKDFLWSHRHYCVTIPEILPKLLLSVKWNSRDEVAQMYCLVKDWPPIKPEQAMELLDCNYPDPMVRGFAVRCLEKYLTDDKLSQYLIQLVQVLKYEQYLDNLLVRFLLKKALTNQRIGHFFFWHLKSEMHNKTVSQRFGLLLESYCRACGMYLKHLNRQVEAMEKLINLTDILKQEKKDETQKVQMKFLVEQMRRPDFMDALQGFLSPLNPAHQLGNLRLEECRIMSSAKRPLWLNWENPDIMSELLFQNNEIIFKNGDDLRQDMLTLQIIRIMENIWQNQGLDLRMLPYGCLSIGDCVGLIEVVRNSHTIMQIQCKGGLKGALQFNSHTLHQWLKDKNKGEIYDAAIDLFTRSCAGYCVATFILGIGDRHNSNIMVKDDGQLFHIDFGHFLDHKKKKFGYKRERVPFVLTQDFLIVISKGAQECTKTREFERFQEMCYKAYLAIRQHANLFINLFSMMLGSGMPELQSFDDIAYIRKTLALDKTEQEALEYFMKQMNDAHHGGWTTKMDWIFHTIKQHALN
Chain of PI3 K Alpha (P27986 whole entry partner): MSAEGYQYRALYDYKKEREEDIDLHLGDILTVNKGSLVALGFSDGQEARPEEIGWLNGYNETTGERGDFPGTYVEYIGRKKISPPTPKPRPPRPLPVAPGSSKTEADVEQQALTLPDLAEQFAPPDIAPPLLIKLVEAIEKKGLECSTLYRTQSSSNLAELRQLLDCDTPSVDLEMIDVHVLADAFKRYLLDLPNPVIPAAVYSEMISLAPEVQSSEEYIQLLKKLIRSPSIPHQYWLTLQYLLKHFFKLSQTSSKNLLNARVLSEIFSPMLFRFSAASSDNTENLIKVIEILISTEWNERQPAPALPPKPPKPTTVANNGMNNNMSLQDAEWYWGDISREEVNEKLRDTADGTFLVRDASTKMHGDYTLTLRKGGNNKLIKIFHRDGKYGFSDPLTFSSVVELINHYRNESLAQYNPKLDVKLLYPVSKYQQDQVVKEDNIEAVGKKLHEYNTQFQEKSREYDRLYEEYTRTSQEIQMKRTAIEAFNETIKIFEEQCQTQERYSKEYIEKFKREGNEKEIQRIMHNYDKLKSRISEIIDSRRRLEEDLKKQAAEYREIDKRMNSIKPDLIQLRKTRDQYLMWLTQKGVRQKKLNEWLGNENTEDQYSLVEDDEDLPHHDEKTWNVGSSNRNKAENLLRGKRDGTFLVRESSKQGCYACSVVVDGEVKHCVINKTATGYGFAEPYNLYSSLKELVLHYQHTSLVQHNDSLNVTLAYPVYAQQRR

Row | SMILES | pIC50 [1] | pEC50 [2]
1 | CNC(=O)[C@@H]1CCN1C(=O)Nc1cn2cc(-c3cnc(N)c(C(F)(F)F)c3)ccc2n1 [Example 36, (S)-N1-(6-(6-amino-5-(trifluoromethyl)pyridin-3-yl)imidazo[1,2-a]pyridin-2-yl)-N2-methylazetidine-1,2-dicarboxamide] | > 4.60 | > 4.60
2 | C[C@H](N)C(=O)Nc1cn2nc(-c3cnc(N)c(C(F)(F)F)c3)ccc2n1 [Example 239, (S)-2-amino-N-(6-(6-amino-5-(trifluoromethyl)pyridin-3-yl)imidazo[1,2-b]pyridazin-2-yl)propanamide] | > 6.00 | > 5.00
3 | CC(=O)Nc1cn2cc(-c3cnc(N)c(C(=O)N4CCCC4)c3)ccc2n1 [Example 155, N-(6-(6-amino-5-(pyrrolidine-1-carbonyl)pyridin-3-yl)imidazo[1,2-a]pyridin-2-yl)acetamide] | > 6.00 | > 4.60
4 | CC(C)(C)OC(=O)N1CCC1C(=O)Nc1cn2cc(-c3cnc(N)c(OCC(F)(F)F)n3)ccc2n1 (centres unmarked) [Example 174, tert-butyl 2-(6-(5-amino-6-(2,2,2-trifluoroethoxy)pyrazin-2-yl)imidazo[1,2-a]pyridin-2-ylcarbamoyl) azetidine-1-carboxylate] | > 6.00 | > 4.60
5 | Nc1ncc(-c2ccc3nc(NC(=O)C4CCN4)cn3n2)cc1C(F)(F)F (centres unmarked) [Example 189] | > 6.00 | > 5.00
6 | CCN1CC[C@@H](OCC(=O)Nc2cn3cc(-c4cnc(N)c(C(F)(F)F)c4)ccc3n2)C1 [Example 227, (R)-N-(6-(6-amino-5-(trifluoromethyl)pyridin-3-yl)imidazo[1,2-a]pyridin-2-yl)-2-(1-ethylpyrrolidn-3-yloxy)acetamide] | > 6.00 | > 5.00
7 | CC(=O)Nc1cn2nc(-c3cnc(N)cn3)ccc2n1 [Example 170] | > 6.00 | > 4.60
8 | CC(C)(C(=O)Nc1cn2cc(-c3cnc(N)c(C(F)(F)F)c3)ccc2n1)c1ccccc1 [Example 44] | > 5.00 | > 4.60
9 | COc1c(-c2cnc(N)c(C(F)(F)F)c2)ccc2nc(NC(=O)C(F)(F)F)cn12 [Example 37, N-(6-(6-amino-5-(trifluoromethyl)pyridin-3-yl)-5-methoxy-imidazo[1,2-a]pyridin-2-yl)-2,2,2-trifluoroacetamide] | > 4.60 | > 4.60
10 | CCN(CC)CCOc1cc(-c2ccc3nc(NC(C)=O)cn3c2)cnc1N [Example 42, N-(6-(6-amino-5-(2-(diethylamino)ethoxy)pyridin-3-yl)imidazo[1,2-a]pyridin-2-yl)acetamide] | > 5.00 | > 4.60
11 | Nc1ncc(-c2ccc3nc(NC(=O)c4ccncc4)cn3c2)cc1C(F)(F)F [Example 163] | > 6.00 | > 4.60
12 | CC(C)(C)OC(=O)NCC(=O)Nc1cn2cc(-c3cnc(N)c(C(F)(F)F)c3)ccc2n1 [Example 203, tert-butyl 2-(6-(6-amino-5-(trifluoromethyl)pyridin-3-yl)imidazo[1,2-a]pyridin-2-ylamino)-2-oxoethylcarbamate] | > 6.00 | > 5.00
13 | Nc1ncc(-c2ccc3nc(NC(=O)N4CCC(C(=O)O)C4)cn3c2)cc1C(F)(F)F (centres unmarked) [Example 151] | > 6.00 | > 4.60
14 | COc1ccccc1-c1cc(-c2ccc3nc(NC(C)=O)cn3n2)cnc1N [Example 212, N-(6-(6-amino-5-(2-methoxyphenyl)pyridin-3-yl)imidazo[1,2-b]pyridazin-2-yl)acetamide] | > 6.00 | > 5.00
15 | Nc1ncc(-c2ccc3nc(NC(=O)Cc4ccccn4)cn3c2)cc1C(F)(F)F [Example 52, N-(6-(6-amino-5-(trifluoromethyl)pyridin-3-yl)imidazo[1,2-a]pyridin-2-yl)-2-(pyridin-2-yl)acetamide] | > 6.00 | > 5.00
16 | NC(=O)N1CC[C@H]1C(=O)Nc1cn2cc(-c3cnc(N)c(C(F)(F)F)c3)ccc2n1 [Example 148, (S)-N2-(6-(6-amino-5-(trifluoromethyl)pyridin-3-yl)imidazo[1,2-a]pyridin-2-yl)azetidine-1,2-dicarboxamide] | > 6.00 | > 4.60
17 | CC(=O)Nc1cn2cc(-c3cnc(N)cn3)ccc2n1 [Example 161, N-(6-(5-aminopyrazin-2-yl)imidazo[1,2-a]pyridin-2-yl)acetamide] | > 6.00 | > 4.60
18 | CC(=O)Nc1cn2cc(-c3cnc(N)c(N4CCOCC4)n3)ccc2n1 [Example 201, N-(6-(5-amino-6-morpholino-pyrazin-2-yl)imidazo[1,2-a]pyridin-2-yl)acetamide] | > 6.00 | > 5.00
19 | COCCOc1nc(-c2ccc3nc(NC(=O)CN4CCCCC4)cn3c2)cnc1N [Example 202, N-(6-(5-amino-6-(2-methoxyethoxy)pyrazin-2-yl)imidazo[1,2-a]pyridin-2-yl)-2-(piperidin-1-yl)acetamide] | > 6.00 | > 5.00

Row | SMILES | pIC50 [1] | pEC50 [2]
20 | NCCC(=O)Nc1cn2nc(-c3cnc(N)c(C(F)(F)F)c3)ccc2n1 [Example 246, 3-amino-N-(6-(6-amino-5-(trifluoromethyl)pyridin-3-yl)imidazo[1,2-b]pyridazin-2-yl)propanamide] | > 6.00 | > 5.00
21 | Nc1ncc(-c2ccc3nc(NC(=O)c4cccc(Cl)c4)cn3c2)cc1C(F)(F)F [Example 225, N-(6-(6-amino-5-(trifluoromethyl)pyridin-3-yl)imidazo[1,2-a]pyridin-2-yl)-3-chlorobenzamide] | > 6.00 | > 5.00
22 | Nc1ncc(-c2ccc3nc(NC(=O)N4CCCC4C(F)(F)F)cn3c2)cc1C(F)(F)F (centres unmarked) [Example 191] | > 6.00 | > 5.00
23 | CC(=O)Nc1cn2cc(-c3cnc(N)c(-c4cccc(F)c4)c3)ccc2n1 [Example 134, N-(6-(6-amino-5-(3-fluorophenyl)pyridin-3-yl)imidazo[1,2-a]pyridin-2-yl)acetamide] | > 6.00 | > 5.00
24 | CC(C)(C)OC(=O)N1CC[C@H]1C(=O)Nc1cn2cc(-c3cnc(N)c(C(F)(F)F)c3)ccc2n1 [Example 169, (S)-tert-butyl 2-(6-(6-amino-5-(trifluoromethyl)pyridin-3-yl)imidazo[1,2-a]pyridin-2-ylcarbamoyl) azetidine-1-carboxylate] | > 6.00 | > 4.60
25 | Nc1ncc(-c2ccc3nc(NC(=O)CCCn4ccnc4)cn3c2)cc1C(F)(F)F [Example 238, N-(6-(6-amino-5-(trifluoromethyl)pyridin-3-yl)imidazo[1,2-a]pyridin-2-yl)-4-(1H-imidazol-1-yl)butanamide] | > 6.00 | > 5.00
26 | Nc1ncc(-c2ccc3nc(NC(=O)N4CC[C@H](O)C4)cn3c2)cc1C(F)(F)F [Example 224, (S)-N-(6-(6-amino-5-(trifluoromethyl)pyridin-3-yl)imidazo[1,2-a]pyridin-2-yl)-3-hydroxy-pyrrolidine-1-carboxamide] | > 6.00 | > 5.00
27 | CC(=O)Nc1cn2cc(-c3cnc(N)c(C)n3)ccc2n1 [Example 226, N-(6-(5-amino-6-methylpyrazin-2-yl)imidazo[1,2-a]pyridin-2-yl)acetamide] | > 6.00 | > 5.00
28 | CC(=O)Nc1cn2cc(-c3ccc(N)nc3C)ccc2n1 [Example 144, N-(6-(6-amino-2-methylpyridin-3-yl)imidazo[1,2-a]pyridin-2-yl)acetamide] | > 6.00 | > 4.60
29 | CC(=O)Nc1cn2cc(-c3cnc(N)c(/C=N/OC(C)(C)C)c3)ccc2n1 [Example 157, (E)-N-(6-(6-amino-5-((tert-butoxyimino)methyl)pyridin-3-yl)imidazo[1,2-a]pyridin-2-yl)acetamide] | > 6.00 | > 4.60
30 | CC(=O)Nc1cn2cc(-c3cnc(N)c(C(=O)N4CCN(C(=O)OC(C)(C)C)CC4)c3)ccc2n1 [Example 152, tert-butyl 4-(5-(2-acetamido-imidazo[1,2-a]pyridin-6-yl)-2-aminonicotinoyl) piperazine-1-carboxylate] | > 6.00 | > 4.60
31 | CC(C)(C)OC(=O)N1CCC[C@H]1C(=O)Nc1cn2nc(-c3cnc(N)c(C(F)(F)F)c3)ccc2n1 [Example 166, (S)-tert-butyl 2-(6-(6-amino-5-(trifluoromethyl)pyridin-3-yl)imidazo[1,2-b]pyridazin-2-ylcarbamoyl) pyrrolidine-1-carboxylate] | > 6.00 | > 4.60
32 | CC(=O)Nc1cn2cc(-c3cnc(N)c(C(F)(F)F)c3)c(F)cc2n1 [Example 171, N-(6-(6-amino-5-(trifluoromethyl)pyridin-3-yl)-7-fluoroimidazo [1,2-a]pyridin-2-yl)acetamide] | > 6.00 | > 4.60
33 | Nc1ncc(-c2ccc3nc(NC(=O)COCc4ccccc4)cn3n2)cc1C(F)(F)F [Example 217, N-(6-(6-amino-5-(trifluoromethyl)pyridin-3-yl)imidazo[1,2-b]pyridazin-2-yl)-2-(benzyloxy) acetamide] | > 6.00 | > 5.00
34 | CC(=O)Nc1cn2cc(-c3cnc(N)c(Br)n3)ccc2n1 [Example 164, N-(6-(5-amino-6-bromopyrazin-2-yl)imidazo[1,2-a]pyridin-2-yl)acetamide] | > 6.00 | > 4.60
35 | Nc1ncc(-c2ccc3nc(NC(=O)[C@H]4CCCCN4)cn3c2)cc1C(F)(F)F [Example 216, (R)-N-(6-(6-amino-5-(trifluoromethyl)pyridin-3-yl)imidazo[1,2-a]pyridin-2-yl)piperidine-2-carboxamide] | > 6.00 | > 5.00
36 | COc1nc(-c2cc(F)c3nc(NC(C)=O)cn3c2)cnc1N [Example 145, N-(6-(5-amino-6-methoxypyrazin-2-yl)-8-fluoroimidazo [1,2-a]pyridin-2-yl)acetamide] | > 6.00 | > 4.60
37 | CCC(=O)Nc1cn2cc(-c3cnc(N)c(OC)n3)ccc2n1 [Example 185, N-(6-(5-amino-6-methoxypyrazin-2-yl)imidazo[1,2-a]pyridin-2-yl)propionamide] | > 6.00 | > 5.00
